Source: patent US20240209043A1, “NON-ANTIBODY BINDING PEPTIDES AND THEIR ANALOGS DUAL-TARGETING TO PD-1 AND PD-L1, AND USES THEREOF” (ORAL SUBSIDIARY SUN YAT-SEN UNIVERSITY HOSPITAL, priority 2021, published 2024)
Where no end group is shown, it is not given here.

What was measured:
[1] = target: T1, PD-1 on the surface of Jurkat T cells (Homo sapiens, UniProt Q15116); assay: Immunofluorescence and flow cytometry analysis of specific binding of FITC-stained peptides to Jurkat T cells; assay type: cell-based; conditions: flow cytometry; 10 μM or 40 μM FITC peptide
T1 construct: when Jurkat cells were stimulated by PMA, they highly expressed PD-1; endogenous in cells; host or cells: Jurkat T cells stimulated with PMA and ionomycin
Protocol: (§1) Experiments were divided into an experimental group and a control group. In the experimental group, Jurkat T cells were stimulated for 24 hours with 50 ng/ml of Phorbol 12-myristate 13-acetate (PMA) and 1 ug/ml of Ionomycin Calcium Salt (Ionomycin) to express PD-1, while in the control group, Jurkat T cells were not stimulated and thus hardly expressed any PD-1. For immunofluorescence analysis, Jurkat T cells (1×10^6) were obtained and blocked with 2% BSA for 1 hour at room temperature to decrease specific binding. After blocking, the cells were collected and incubated with 10 μM of peptides stained with FITC (green fluorescence) for 1 hour at 37° C. PBS was used for washing the cells three times and 4% paraformaldehyde was used for immobilization. […] PBS was used for washing three times again and anti-fade mounting medium was used for preserving fluorescence. Further, fluorescence confocal microscope images were analyzed by using Image J software to evaluate the ability of polypeptides to compete the binding sites of PD-1. […] Subsequently, the cells were incubated with 10 μM or 40 μM of peptides stained with FITC (green fluorescence) for 1 hour at 4° C. PBS was used for washing three times, and finally 500 ul of PBS was used for resuspending the cells, which were then transferred to flow tubes and analyzed by flow cytometry (CytoFLEX, BECK MANCOULTER, America).

[2] = target: T2, PD-1 expressed on the surface of stimulated Jurkat T cells (Homo sapiens, UniProt Q15116); assay: Blocking capacity: competitive binding to PD-1 on stimulated Jurkat T cells (immunofluorescence, mean fluorescence intensity); assay type: cell-based; conditions: 1 hour incubation, equal concentration
T2 construct: when Jurkat cells were stimulated by PMA, they highly expressed PD-1; endogenous in cells; host or cells: Jurkat T cells stimulated with PMA and ionomycin
Protocol: as §1, with “America). […]” for “America).”

[3] = target: T3, recombinant Human PD-L1 protein binding to PD-1-expressing Jurkat T cells (Homo sapiens, UniProt Q15116); assay: Neutralization of recombinant Human PD-L1 protein binding to PD-1-expressing Jurkat T cells (flow cytometry); assay type: cell-based; conditions: peptide 0.4-40 μM mixed with PD-L1 protein, stimulated Jurkat T cells
T3 construct: when Jurkat cells were stimulated by PMA, they highly expressed PD-1; host or cells: Jurkat T cells stimulated with PMA and ionomycin
Protocol: The Jurkat T cells were divided into two groups, an experimental group and a control group, wherein in the experimental group, 50 ng/ml of Phorbol 12-myristate 13-acetate (PAM) and 1 ug/ml of Ionomycin Calcium Salt (Ionomycin) were used to stimulate the cells, and in the control group, Jurkat T cells were unstimulated. The cells (5×10^5) were collected in each tube, and washed once with FACS buffer (PBS with 2% BSA). Then recombinant Human PD-L1 protein (PD1-H82F3, Acro Biosystems) was diluted to 4 ug/ml with FACS, and PD-1 binding peptides were diluted with FACS to a series of concentrations of 0.4 μM, 1.33 μM, 4 μM, 13.3 μM, and 40 μM. Subsequently, the two working solutions (PD-L1 protein diluent and peptide diluent) were mixed in an equal volume and 100 ul of mixed solutions at different concentrations were added to the centrifuge tubes together with the cells, incubated for 1 hour at 4° C. FACS buffer was used for washing the cells three times, and 0.12 ug/ml of APC Streptavidin (405207, Biolegend) was added to each tube and the incubation was performed for 1 hour at 4° C., and then the cells were washed three times with FACS buffer again, and 500 μl of PBS was added to resuspend the cells, which were further transferred to flow tubes and analyzed by flow cytometry.
Further, neutralization capacity of nABP284 and new peptides to recombinant Human PD-L1 protein were studied. […]

Jurkat T cells = assay: CCK-8 cytotoxicity assay on Jurkat T cells; assay type: cell-based, Human; conditions: CCK-8, 1-64 μM, 24 hours
Protocol: (§2) Cytotoxicity assay was performed and measured with Cell Counting Kit-8 (CCK-8, Dujindo, Japan). Jurkat cells (each well with 4000 cells), PBMCs (each well with 4000 cells) and Cal27 cells (each well with 2000 cells) were added into a 96-well plate and cultured for 24 hours, respectively. nABP284, nABP386 and nABP486 in a concentration gradient of 1 μM, 2 μM, 3 μM, 4 μM, 8 μM, 16 μM, 32 μM and 64 μM were added into the medium and the cells were cultured for 24 hours in a cell incubator. After that, 10 μl of CCK-8 solution was added to each well and the cells were incubated for 2 hours. VictorX5 Multilabel plate reader (PerkinElmer, Singapore) was used for measuring absorbance of each well at 450 nm. Cell viability (%) was calculated by the following formula:
(§3) Cell viability (%)=[(Sample A−Background A)/(Control A−Blank A)×100%. • Wherein Sample A denotes the absorbance of the experimental well (including cells, CCK-8 solution, medium and peptide diluent) • Background A denotes the absorbance of the background hole (including CCK-8 solution, medium, and peptide diluent without cells); • Control A denotes the absorbance of the control hole (including cells, CCK-8 solution and medium without peptide diluent); and • Blank A denotes the absorbance of the blank hole (including CCK-8 solution and medium without cells and peptide diluent).

Cal27 cells = assay: CCK-8 cytotoxicity assay on Cal27 cells; assay type: cell-based, Human; conditions: CCK-8, 1-64 μM, 24 hours
Protocol: as §2, §3

[4] = tested on: PD-1/PD-L1 interaction in Jurkat T / Cal27 co-culture; assay: Co-culture of stimulated Jurkat T cells and stimulated Cal27 cells, IL-2 ELISA; assay type: cell-based, Human; conditions: 10 μM peptide or 2 ug/ml antibody, 24 hours co-culture, compared with the control group
Protocol: 50 ng/ml of Phorbol 12-myristate 13-acetate (PMA) and 1 ug/ml of Ionomycin Calcium Salt (Ionomycin) were used for stimulating Jurkat T cells for 24 hours, and 500 U/ml of IFN-γ was used for stimulating CAL27 cells for 48 hours. The stimulated Jurkat T cells were incubated with 10 μM of nABP284, 10 μM of nABP386, 10 μM of nABP486, and 2 ug/ml of PD-1 functional monoclonal antibody (J116, eBioscience|ThermoFisher Science) for 1 hour in advance at 37° C., respectively, and the stimulated CAL27 cells were added to the 96-well plate at 1×10^4 cells per well. When CAL27 cells were immobilized, a supernate was removed. The Jurkat T cells at a ratio of 4 to 1 and 200 ul of medium were added to each well. After these cells were co-cultured for 24 hours, a supernate was collected and analyzed by ELISA kit (88-7025-86, Thermo Fisher Scientific) to measure the amount of IL-2 in the supernate.

PD-1 [5] = target: T4, PD-1 (Homo sapiens, UniProt Q15116); conditions: in vitro, prior patent; cited from earlier work
Target sequence in this assay (Q15116 25-288): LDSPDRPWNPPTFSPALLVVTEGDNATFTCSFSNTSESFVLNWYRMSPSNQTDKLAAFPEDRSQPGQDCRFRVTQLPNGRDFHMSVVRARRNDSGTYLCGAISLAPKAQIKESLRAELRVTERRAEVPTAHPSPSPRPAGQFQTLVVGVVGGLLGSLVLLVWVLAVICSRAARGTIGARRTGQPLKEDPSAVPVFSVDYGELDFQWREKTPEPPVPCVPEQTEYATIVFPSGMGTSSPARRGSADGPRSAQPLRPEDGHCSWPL

tumor = conditions: prior patent; cited from earlier work
PD-1 [6] = target: T4, PD-1; assay: SPR affinity assay on recombinant Human PD-1 protein (Biocore T100, CM5 chip); assay type: binding; set-up: purchased Acro Biosystems PD1-H5221
Protocol: The affinity of the peptides was tested with Biocore T100 through surface plasmon resonance (SPR) technique. […] Finally, the affinities (Kd-value) of the peptides were calculated by fitting curves in the sensor diagram in Biacore software.
The binding affinities (Kd-value) of nABP386, nABP486, and nABP786 to PD-1 were detected by Surface plasma resonance (SPR), respectively.
Target sequence in this assay (Q15116 25-167 limits assumed): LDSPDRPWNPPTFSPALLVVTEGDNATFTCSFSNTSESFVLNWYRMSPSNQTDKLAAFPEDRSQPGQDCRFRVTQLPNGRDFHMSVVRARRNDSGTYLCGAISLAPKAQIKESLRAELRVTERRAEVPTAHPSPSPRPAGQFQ

T1 sequence (Q15116 25-288): as the sequence (Q15116 25-288) above
T2 sequence (Q15116 25-288): as above
T3 sequence (Q15116 25-288): as above

**Q.** With “SRLKEIANSPTQFWRMVARNTLGGAKQSLNIEHARL [nABP284]” as the sequence, how does the “binding rate to PD-1-expressing Jurkat T cells” value [1] read?
**A.** may increase with its increasing concentration

**Q.** What about the “blocking capacity on PD-1 (mean fluorescence intensity)” value [2] of the same sequence?
**A.** have a blocking capacity on PD-1 expressed on the surface of stimulated Jurkat T cells

**Q.** What about the “neutralization capacity to recombinant Human PD-L1 protein” value [3] of the same sequence?
**A.** can be inhibited

**Q.** And the “direct cytotoxicity to Jurkat T cells” value (Jurkat T cells)?
**A.** no directly cytotoxicity

**Q.** What about the “direct cytotoxicity to Cal27 cells” value (Cal27 cells) of the same sequence?
**A.** no directly cytotoxicity

**Q.** What about the “secretion level of IL-2 in the co-culture system” value [4] of the same sequence?
**A.** significantly increased

**Q.** And the “blocking of PD-L1 ligand binding to PD-1” value (PD-1 [5])?
**A.** can block the binding of PD-L1 ligand to PD-1

**Q.** What about the “secretion of IL-2 and tumor cytotoxicity of T lymphocytes” value (PD-1 [5]) of the same sequence?
**A.** enhance the secretion of interleukin 2 (IL-2) and tumor cytotoxicity of T lymphocytes

**Q.** What about the “tumor growth in mice” value (tumor) of the same sequence?
**A.** inhibit tumor growth in mice

**Q.** What about the “binding affinity to PD-1, in words” value (PD-1 [6]) of the same sequence?
**A.** can specifically bind to PD-1 with moderate affinity
